The results in this text go back to article PMC7997579, “Synthetic Lethality in Pancreatic Cancer: Discovery of a New RAD51-BRCA2 Small Molecule Disruptor That Inhibits Homologous Recombination and Synergizes with Olaparib” (Journal of Medicinal Chemistry, 2020).

By Kd is commonly meant the concentration at which binding is half-saturated. Usually inhibition stands for the percentage by which the read-out fell short of the control. The term EC50 denotes the concentration giving half of the maximal effect. Broadly, the solubility is how much of the substance goes into solution per volume.

Molecules are shown by their SMILES. Converted amounts (≈) assume the structure as drawn. Like-named read-outs stand apart in the source and are kept apart here.

The target in one series is T1, recombinant human RAD51 (Homo sapiens, UniProt Q06609).
T1 construct: made in house; host or cells: E. coli Rosetta2(DE3)pLysS, pET15b-His-hRAD51
T1 sequence (Q06609 1-339): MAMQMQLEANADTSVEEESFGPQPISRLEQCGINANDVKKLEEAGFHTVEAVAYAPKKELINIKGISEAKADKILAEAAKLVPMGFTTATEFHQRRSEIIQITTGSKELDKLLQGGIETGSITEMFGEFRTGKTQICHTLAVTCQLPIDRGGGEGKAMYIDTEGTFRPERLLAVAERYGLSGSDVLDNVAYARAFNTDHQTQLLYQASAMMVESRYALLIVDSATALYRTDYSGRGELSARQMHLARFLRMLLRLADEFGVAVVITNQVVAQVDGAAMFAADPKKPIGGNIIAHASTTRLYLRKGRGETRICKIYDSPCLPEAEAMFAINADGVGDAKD
The series is described as follows: Microscale thermophoresis (MST) binding assay. The settings on record: labeled His-hRAD51, 35d up to 40 μM, three replicates, read-out: Kd (RAD51-35d interaction). On the procedure: To further assess the physical interaction between 35d and RAD51, a microscale thermophoresis (MST) assay was performed on the recombinant human RAD51 (see Experimental Section). The binding assay allowed us to determine the dissociation constant (Kd) for the RAD51-35d interaction and binding. […] This is in agreement with the ELISA assay, supporting the initial hypothesis that 35d could act as a RAD51-BRCA2 disruptor.
The recombinant protein hRAD51 was labeled with the Monolith His-Tag labeling kit RED-tris-NTA 2nd Generation kit (NanoTemper Technologies). MST measurements were simultaneously performed on 16 capillaries containing a constant concentration (25 nM) of labeled RED-tris-NTA 2nd Generation His-hRAD51 protein and 16 different concentrations of 35d in order to determine a concentration-dependent MST binding curve. The highest 35d concentration tested was 40 μM. Measurements were carried out in MST buffer (20 mM Hepes (pH 8.00), 250 mM KCl, 0.1 mM EDTA, 5% (v/v) glycerol, 5% DMSO).
Background: In MST a laser heats a spot of the sample, and binding alters the fluorescence response.

The test system of series [1] is homologous recombination in BxPC3 cells. The series is described as follows: Homologous recombination assay (two-plasmid recombination, real-time PCR). The settings on record: Homo sapiens, BXPC-3. Type of series: cell-based, human. For orientation: Quantitative PCR measures a nucleic acid by following its amplification.
For another series, the system named is BxPC3 cells. Put plainly: Micronuclei visualization. The settings on record: BxPC3, 72 h, 20 μM 35d + 10 μM olaparib vs single agents; p <0.01. Format: cell-based, human. On the procedure:
For micronuclei visualization, cells were grown on coverslips placed in a 6-multiwell plate (5 × 10^5 cells/well). After a 72 h treatment with olaparib (10 μM) or 35d (20 μM) given alone or in combination, wells were rapidly washed with PBS and then fixed for 10 min with cold methanol. Coverslips were then air-dried and mounted on glass slides using a solution of DAPI (5 μg/mL)/DABCO. Images were acquired on a Nikon fluorescent microscope equipped with filters for DAPI. […] The percentage of cells bearing micronuclei was estimated by two independent observers, by analyzing 100–250 cells for each treatment sample.

Series [2] in a line: Solubility (as observed in cell culture media / stated). Type of series: physicochemical.
In another series the test system is BxPC-3. Put plainly: Cytotoxicity assay (CellTox Green), cell death. Type of series: cell-based, human. As to conditions: BxPC3, 72 h. Here is the method:
Cell death was assessed by applying the CellTox Green cytotoxicity assay (Promega). Briefly, BxPC-3 (1 × 10^4/well) were plated in 96-well plates and treated for 72 h with olaparib (10 μM) and the BRCA2-RAD51 disruptors administered alone or in combination. At the end of treatment, the CellTox dye was added to cell cultures and the green fluorescence signal, which is produced by the binding interaction with dead cell DNA, was measured following the manufacturer’s instructions.

For `CCC(=O)N1N=C(c2c(-c3ccccc3)c3cc(Cl)ccc3[nH]c2=O)CC1c1ccc(OC)cc1` (stereo not drawn) [Compound 35d, 6-Chloro-3-(5-(4-methoxyphenyl)-1-propionyl-4,5-dihydro-1H-pyrazol-3-yl)-4-phenylquinolin-2(1H)-one], the dissociation constant Kd on recombinant human RAD51 was 11 ± 6 µM. The inhibition at 10 µM in series [1] (10 μM, BxPC3, 5 h during plasmid transfection) was ~10%. Besides, in series [1] (20 μM, BxPC3, 5 h during plasmid transfection), the inhibition at 20 µM turned out to be 54%. Besides, the EC50 in series [1] (BxPC3, 5 h, tested up to 40 μM, polynomial regression, read-out: EC50 (dose causing a 50% inhibition of HR)) came to 18.4 µM. Also, the cells bearing micronuclei result in the series on BxPC3 cells is recorded as “markedly more frequent”. The solubility was 40 µM (≈ 19.4 µg/mL) in series [2] (HR assay medium (RPMI, 0.6% DMSO), kinetic from dmso stock, read-out: upper limit in terms of solubility) and “low solubility” in series [2] (stated in conclusions). The “cell death, effect of olaparib coadministration” value in the series on BxPC-3 (20 μM 35d + 10 μM olaparib, p < 0.0001) is “markedly increased and statistically significant”; in the series on BxPC-3 (10–15 μM 35d + 10 μM olaparib) it was “no statistically significant increase”.
